Experiments:
ME/CFS patients [1] = assay: FibroFatigue scale (FF) total score, phase II clinical study; type: in vivo, human
Excerpt: As used herein, the term “FF-scale” or “FF” refers to the FibroFatigue scale also known as the fibromyalgia and chronic fatigue syndrome rating scale described in by Zachrisson and coworkers (Zachrisson O, et al, (2002) J Psychosom Res Jun; 52(6):501-9). The FibroFatigue scale is an observer's rating scale with 12 items measuring pain, muscular tension, fatigue, concentration difficulties, failing memory, irritability, sadness, sleep disturbances, and autonomic disturbances and irritable bowel, headache and subjective experience of infection. […] Circular coated tablets for oral use of 15 mg and matching placebos was used. The tablets were administered by research nurses at the study site. The tablets were circular coated tablets for oral use containing 15 mg OSU6162. Matching placebos were used. The start dose was 15 mg OSU6162 twice daily (before breakfast and lunch) during 1 week with dose increase up to 30 mg twice daily during the following week. Additionally, the clinical effect was evaluated using the FF-scale, The Beck/BDI scale, VAS pain scale and with neuropsychological tests. To examine the effect of treatment and concomitant use of an antidepressant, antidepressant was included as a fixed factor in the analyses. […] Outcome targets FF, MFS and BDI were measured.

ME/CFS patients [2] = assay: Barrow Neurological Institute Screen for Higher Cerebral Functions (BNIS); type: in vivo, human
Experimental: Next, patients were evaluated using a neuropsychological test. 61 patients were included in a neuropsychological examination. All subjects were tested once in connection with the randomization with the BNIS neuropsychological screening test. 20-30 minutes was required for this test. With the purpose of measuring the cognitive effects of the OSU6162 treatment six more tests were distributed at a first occasion before the initiation of treatment and at a second occasion after the treatment was completed. These tests required 20 minutes each. All tests were performed by a neuropsychologist. Barrow Neurological Institute Screen for Higher Cerebral Functions (BNIS) is a screening test constructed to quantitatively and qualitatively reflect the outcome of a range of higher cerebral functions. The three initial items are pre-screening items where arousal level, basic communication skills and level of cooperation are assessed (a maximum score of 9) to decide whether the status of the patients allows further testing. At least two points in each item are required. The BNIS contains the following domains: speech and language (maximum score 15), orientation (maximum score 3), attention/concentration (maximum score 3), visual and visual spatial problem solving (maximum score 8), learning and memory (maximum score 7), affect (maximum score 4) and awareness vs. performance (maximum score 1). The test provides a total score=50 of overall cognitive functioning and subscale scores. A score less than 47 indicates brain dysfunction.

water solubility = type: physicochemical; settings: hydrochloride, white powder
Experimental: The investigated substance is the S enantiomer with the chemical name (S)-3-[3-(methylsulfonyl) phenyl]-1-propylpiperidine hydrochloride, referred herein to as OSU6162. The substance is a white powder with a melting point of 177-182° C. and water solubility of >2000 mg/ml.

[3] = OSU6162 concentration in blood plasma; type: in vivo, human
Experimental: Next, the concentration of OSU6162 in blood plasma was measured and analyzed for correlations with time and changes in FF, MFS and BDI score.
Plasma concentrations of OSU6162 were measured in 30 patients who received placebo and in 31 patients who received OSU6162. The blood sample was drawn in the morning after the tablet was taken—the time of the tablet intake was noted and reported to the clinic by the patient. The blood sample was taken at minimum 65 and at maximum 180 minutes after tablet intake. The mean time was 123 minutes and the standard deviation 33 minutes.
In order to analyze the relationship between the treatment outcome and the concentration of OSU6162 in blood plasma, OSU6162 concentrations in patients measured after week 2 were plotted against change in FF, MFS and BDI score (FIGS. 6, 7 and 8).

ME/CFS patients [4] = assay: Beck Depression Inventory (BDI) total score, phase II clinical study; type: in vivo, human; settings: 2-way ANOVA, OSU6162 vs placebo
Experimental: Circular coated tablets for oral use of 15 mg and matching placebos was used. The tablets were administered by research nurses at the study site. The tablets were circular coated tablets for oral use containing 15 mg OSU6162. Matching placebos were used. The start dose was 15 mg OSU6162 twice daily (before breakfast and lunch) during 1 week with dose increase up to 30 mg twice daily during the following week. Additionally, the clinical effect was evaluated using the FF-scale, The Beck/BDI scale, VAS pain scale and with neuropsychological tests. To examine the effect of treatment and concomitant use of an antidepressant, antidepressant was included as a fixed factor in the analyses. […] Outcome targets FF, MFS and BDI were measured.

ME/CFS patients [5] = assay: Trail making test B (TMT B); type: in vivo, human
Experimental: Next, patients were evaluated using a neuropsychological test. 61 patients were included in a neuropsychological examination. All subjects were tested once in connection with the randomization with the BNIS neuropsychological screening test. 20-30 minutes was required for this test. With the purpose of measuring the cognitive effects of the OSU6162 treatment six more tests were distributed at a first occasion before the initiation of treatment and at a second occasion after the treatment was completed. These tests required 20 minutes each. All tests were performed by a neuropsychologist. […] The subject follows a mental track and the test requires the ability to handle more than one stimulus at a time, as well as flexibility in shifting between different activities. It has a high sensitivity for brain dysfunction and is regarded to be related to prefrontal functioning.

[6] = OSU6162 group, tested once in connection with randomization

With `CCCN1CCC[C@@H](c2cccc(S(C)(=O)=O)c2)C1.Cl` [OSU6162, (3S)-3-[3-(methylsulfonyl)-phenyl]-1-propylpiperidine hydrochloride] as the compound, how does the “FF main effect of treatment” value (ME/CFS patients [1]; 2-way ANOVA, OSU6162 vs placebo) read?
Its value is “None”.

And the “FF interaction between treatment with OSU6162 and antidepressant over time” value (ME/CFS patients [1]; 3-way ANOVA week*treatm*antidepr, F3,180=6.785, p=0.0002)?
The value was “statistically significant 3-way interactions”.

And the “FF difference between OSU6162 treated and placebo treated patients” value (ME/CFS patients [1]; patients not on antidepressant therapy, post hoc comparison)?
The value was “No difference”.

What about the “FF change from week 0, difference OSU6162 vs placebo (95% confidence interval)” value (ME/CFS patients [1]; patients on stable antidepressant therapy, after one week of treatment, F1,56=6.320, p=0.015, Bonferroni) of the same compound?
Its value is −7.23 (−13.1 to −1.48).

And the “BNIS total score, max” value (ME/CFS patients [2]; [6])?
Its value is 50.

What about the “BNIS total score, mean” value (ME/CFS patients [2]; [6]) of the same compound?
The value was 45.2.

And the “BNIS total score, min” value (ME/CFS patients [2]; [6])?
Its value is 33.

And the “BNIS difference between OSU6162 and placebo groups” value (ME/CFS patients [2]; in vivo)?
The value was “No significant difference”.

And the solubility (water solubility)?
Its solubility is > 2000 mg/mL.

What about the “correlation between plasma concentration and time between tablet intake and blood sampling” value ([3]; Spearman rank correlation, sampling 65-180 minutes after tablet intake) of the same compound?
Its value is “No significant correlation”.

What about the “therapeutic optimum plasma concentration” value ([3]; plasma after week 2 plotted against change in FF, MFS and BDI score, above 0.7 μM no further improvement) of the same compound?
Its value is 0.3 to 0.7 µM.

And the “BDI main effect of treatment” value (ME/CFS patients [4])?
Its value is “None”.

And the TMT B, max (ME/CFS patients [5]; after treatment)?
The TMT B, max was 145 s.

What about the “TMT B, mean” value (ME/CFS patients [5]; after treatment) of the same compound?
Its value is 61.2.

What about the “TMT B, median” value (ME/CFS patients [5]; after treatment) of the same compound?
Its value is 29.

What about the “TMT B, min” value (ME/CFS patients [5]; after treatment) of the same compound?
The value was 31.

And the “TMT B difference between OSU6162 and placebo groups” value (ME/CFS patients [5]; before and after treatment)?
The value was “No significant differences”.

What about the TMT B, max (ME/CFS patients [5]; before treatment) of the same compound?
The TMT B, max was 134 s.

And the “TMT B, mean” value (ME/CFS patients [5]; before treatment)?
Its value is 71.7.

What about the “TMT B, median” value (ME/CFS patients [5]; before treatment) of the same compound?
Its value is 32.

What about the “TMT B, min” value (ME/CFS patients [5]; before treatment) of the same compound?
Its value is 44.

What about the “TMT B, Difference” value (ME/CFS patients [5]; before vs after treatment) of the same compound?
Its value is 10.

From patent publication US10702512B2, “Treatment of debilitating fatigue” (A. CARLSSON RESEARCH AB, priority 2015, dated 2020)
